Drawing on patent publication US20260022143A1, “Cyclic Peptide Inhibitors of IL-23” (JANSSEN PHARMACEUTICA NV, priority 2022, published 2026), this text covers EPSA and IC50 for eight compounds.

Data set [1] in a line: Exposed Polar Surface Area (EPSA). The class given is physicochemical. The following applies: SFC on Chirex 3014 column; sample 1 mM DMSO stock; read-out: EPSA. The gist of the method: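 EPSA, in Å^2, is read from SFC retention time through a linear relationship established with eight calibration standards. Separation uses a Chirex 3014 stationary phase, 35 °C, 14 MPa back pressure, and a 5–60% methanol/ammonium formate modifier gradient in CO2.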

In another data set the target is T1, IL-23R (Homo sapiens, UniProt Q5VWK5).
T1 construct: host or cells: HEK293
T1 sequence (Q5VWK5 24-629): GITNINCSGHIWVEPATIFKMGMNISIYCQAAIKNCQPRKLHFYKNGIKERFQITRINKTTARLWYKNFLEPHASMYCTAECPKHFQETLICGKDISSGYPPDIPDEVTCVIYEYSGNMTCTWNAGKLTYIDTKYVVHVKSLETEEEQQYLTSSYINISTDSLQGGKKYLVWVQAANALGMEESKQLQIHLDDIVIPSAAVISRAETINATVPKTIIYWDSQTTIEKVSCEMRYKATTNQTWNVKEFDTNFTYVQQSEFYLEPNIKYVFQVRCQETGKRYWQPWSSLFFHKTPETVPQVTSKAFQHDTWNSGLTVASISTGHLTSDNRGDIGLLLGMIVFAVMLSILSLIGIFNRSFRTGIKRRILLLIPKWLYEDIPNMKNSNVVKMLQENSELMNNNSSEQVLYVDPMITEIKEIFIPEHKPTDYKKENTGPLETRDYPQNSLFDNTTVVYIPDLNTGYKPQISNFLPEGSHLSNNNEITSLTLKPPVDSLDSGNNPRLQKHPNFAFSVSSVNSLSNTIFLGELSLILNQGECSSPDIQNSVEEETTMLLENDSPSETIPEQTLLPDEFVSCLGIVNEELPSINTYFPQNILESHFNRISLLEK
In words: IL23R Reporter Assay. The format is cell-based. The conditions noted are these: HEK293 cells containing IL-23R, IL-12RP1 and STAT-inducible firefly luciferase reporter; 10 ng/mL IL-23 (EC90); 5 h at 37° C.; read-out: IL23R Reporter Assay.

Starred links: 1 amine or outer side, 2 acyl side, 3 side chain; linkers in the order of their positions; H or OH if unused. Positions of bridges follow the written chain, without caps; N, C: chain ends. Non-standard residues stand in square brackets, D forms with d. Residues, ends and D or L forms follow the SMILES beside them. Groups on a side chain read outwards from the residue. *: point of attachment. X46 = CCCCCCCCCCCC(=O)N[C@@H](CCC(=O)NCCOCCOCC(=O)NCCOCCOCC(=O)NCCCC[C@H](NC(=O)COCCOCCNC(=O)COCCOCCNC(=O)CC[C@H](NC(=O)CCCCCCCCCCC)C(=O)O)C(=O)*)C(=O)O; X6 = C[N+](C)(C)CCCCCCCc1cn(-c2ccc(C[C@H](N[*:1])C(=O)[*:2])cc2)nn1; Me3N+(CH2)2O(CH2)2O(CH2)2CO = C[N+](C)(C)CCOCCOCCC(=O)*; Trp(7-Me) = Cc1cccc2c(C[C@H](N)C(=O)O)c[nH]c12; 2Nal = N[C@@H](Cc1ccc2ccccc2c1)C(=O)O; AEF = NCCOc1ccc(C[C@H](N)C(=O)O)cc1; 3Pal = N[C@@H](Cc1cccnc1)C(=O)O; Lys(Me) = CNCCCC[C@H](N)C(=O)O; NMeK = CN[C@@H](CCCCN)C(=O)O; Pen = CC(C)(S)[C@H](N)C(=O)O; X18 = C[N+]1(C)CCOC(C*)C1; Thp = NC1(C(=O)O)CCOCC1; X3 = C[N+](C)(C)CCCCC*; AEEA = NCCOCCOCC(=O)O; Sar = CNCC(=O)O

On to `CC(=O)N(C)CCCC[C@@H]1NC(=O)[C@H](Cc2c[nH]c3c(C)cccc23)NC(=O)[C@H]([C@@H](C)O)NC(=O)[C@H](CC(=O)N(C)C)NC(=O)[C@@H](NC(=O)CCOCCOCC[N+](C)(C)C)C(C)(C)SSC(C)(C)[C@@H](C(=O)N[C@@H](Cc2ccc(-n3cc(CCCCCCC[N+](C)(C)C)nn3)cc2)C(=O)N[C@@H](Cc2ccc3ccccc3c2)C(=O)NC2(C(=O)N[C@@H](CCCCN(C)C(C)=O)C(=O)N[C@@H](CC(N)=O)C(=O)N[C@@H](Cc3cccnc3)C(=O)N(C)CC(=O)N(C)C)CCOCC2)NC1=O` [compound 486, cPEG3aCO-Pen(3)-N(N(Me)2)-T-7MeW-K(NMeAc)-Pen(3)-F(4TzlTMA7)-2Nal-THP-K(NMeAc)-N-3Pya-Sar-CON(Me)2] ({Me3N+(CH2)2O(CH2)2O(CH2)2CO}-[Pen]D(NMe2)T[Trp(7-Me)][Lys(Me)](Ac)[Pen][X6][2Nal][Thp][Lys(Me)](Ac)N[3Pal][Sar]-NMe2; disulfide 1-6), for which the EPSA in data set [1] stood at 164 A^2. The IC50 at IL-23R turned out to be 4.4 nM.
For `Cc1cccc2c(C[C@@H]3NC(=O)[C@H]([C@@H](C)O)NC(=O)[C@H](CC(N)=O)NC(=O)[C@@H](NC(=O)CCOCCOCC[N+](C)(C)C)C(C)(C)SSC(C)(C)[C@@H](C(=O)N[C@@H](Cc4ccc(OCCN)cc4)C(=O)N[C@@H](Cc4ccc5ccccc5c4)C(=O)NC4(C(=O)N[C@@H](CCC(=O)N(C)C)C(=O)N[C@@H](CC(N)=O)C(=O)N[C@@H](Cc5cccnc5)C(=O)N(C)CC(=O)N(C)C)CCOCC4)NC(=O)[C@H](CCC(=O)N(C)C)NC3=O)c[nH]c12` [compound 156, cPEG3aCO-Pen(3)-N-T-7MeW-Q(N(Me)2)-Pen(3)-AEF-2Nal-THP-Q(N(Me)2)-N-3Pya-Sar-CON(Me)2] ({Me3N+(CH2)2O(CH2)2O(CH2)2CO}-[Pen]NT[Trp(7-Me)]E(NMe2)[Pen][AEF][2Nal][Thp]E(NMe2)N[3Pal][Sar]-NMe2; disulfide 1-6) the same measures were 155 A^2 and 2 nM.
As to `CC(=O)N(C)CCCC[C@@H]1NC(=O)[C@H](Cc2c[nH]c3c(C)cccc23)NC(=O)[C@H]([C@@H](C)O)NC(=O)[C@H](CC(=O)N(C)C)NC(=O)[C@@H](NC(=O)CCOCCOCC[N+](C)(C)C)C(C)(C)SSC(C)(C)[C@@H](C(=O)N[C@@H](Cc2ccc(OCC3C[N+](C)(C)CCO3)cc2)C(=O)N[C@@H](Cc2ccc3ccccc3c2)C(=O)NC2(C(=O)N[C@@H](CCCCN(C)C(C)=O)C(=O)N[C@@H](CC(N)=O)C(=O)N[C@@H](Cc3cccnc3)C(=O)N(C)CC(=O)N(C)C)CCOCC2)NC1=O` (stereo partly drawn) [compound 202, cPEG3aCO-Pen(3)-N(N(Me)2)-T-7MeW-K(NMeAc)-Pen(3)-DMPMF-2Nal-THP-K(NMeAc)-N-3Pya-Sar-CON(Me)2] ({Me3N+(CH2)2O(CH2)2O(CH2)2CO}-[Pen]D(NMe2)T[Trp(7-Me)][Lys(Me)](Ac)[Pen]Y(X18)[2Nal][Thp][Lys(Me)](Ac)N[3Pal][Sar]-NMe2; disulfide 1-6), the EPSA in data set [1] amounted to 146 A^2. Moreover, the IC50 on IL-23R amounted to 3.5 nM.
With `CC(=O)N(C)CCCC[C@@H]1NC(=O)[C@H](Cc2c[nH]c3c(C)cccc23)NC(=O)[C@H]([C@@H](C)O)NC(=O)[C@H](CC(=O)N(C)C)NC(=O)[C@@H](NC(=O)CCOCCOCC[N+](C)(C)C)C(C)(C)SSC(C)(C)[C@@H](C(=O)N[C@@H](Cc2ccc(OCCCCC[N+](C)(C)C)cc2)C(=O)N[C@@H](CC(C)C)C(=O)NC2(C(=O)N[C@@H](CCCCN(C)C(C)=O)C(=O)N[C@@H](CC(N)=O)C(=O)N[C@@H](Cc3cccnc3)C(=O)N(C)CC(=O)N(C)C)CCOCC2)NC1=O` [compound 499, cPEG3aCO-Pen(3)-N(N(Me)2)-T-7MeW-K(NMeAc)-Pen(3)-TMApF-L-THP-K(NMeAc)-N-3Pya-Sar-CON(Me)2] ({Me3N+(CH2)2O(CH2)2O(CH2)2CO}-[Pen]D(NMe2)T[Trp(7-Me)][Lys(Me)](Ac)[Pen]Y(X3)L[Thp][Lys(Me)](Ac)N[3Pal][Sar]-NMe2; disulfide 1-6), the EPSA in data set [1] amounted to 133 A^2. Also, the IC50 at IL-23R was above 1630 nM.
Taken in the same sequence, the figures for `CC(=O)N(C)CCCC[C@@H]1NC(=O)[C@H](Cc2c[nH]c3c(C)cccc23)NC(=O)[C@H]([C@@H](C)O)NC(=O)[C@H](CC(=O)N(C)C)NC(=O)[C@@H](NC(=O)CCOCCOCC[N+](C)(C)C)C(C)(C)SSC(C)(C)[C@@H](C(=O)N[C@@H](Cc2ccc(OCCCCC[N+](C)(C)C)cc2)C(=O)N[C@@H](C)C(=O)NC2(C(=O)N[C@@H](CCCCN(C)C(C)=O)C(=O)N[C@@H](CC(N)=O)C(=O)N[C@@H](Cc3cccnc3)C(=O)N(C)CC(=O)N(C)C)CCOCC2)NC1=O` [compound 500, cPEG3aCO-Pen(3)-N(N(Me)2)-T-7MeW-K(NMeAc)-Pen(3)-TMApF-A-THP-K(NMeAc)-N-3Pya-Sar-CON(Me)2] ({Me3N+(CH2)2O(CH2)2O(CH2)2CO}-[Pen]D(NMe2)T[Trp(7-Me)][Lys(Me)](Ac)[Pen]Y(X3)A[Thp][Lys(Me)](Ac)N[3Pal][Sar]-NMe2; disulfide 1-6) were 159 A^2 and above 1190 nM.
For `CCCCCCCCCCCC(=O)N[C@@H](CCC(=O)NCCOCCOCC(=O)NCCOCCOCC(=O)NCCCC[C@H](NC(=O)COCCOCCNC(=O)COCCOCCNC(=O)CC[C@H](NC(=O)CCCCCCCCCCC)C(=O)O)C(=O)NCCOCCOCC(=O)NCCOCCOCC(=O)NCCCC[C@@H](C(N)=O)N(C)C(=O)[C@H](Cc1cccnc1)NC(=O)[C@H](CC(N)=O)NC(=O)[C@H](CCCCN(C)C(C)=O)NC(=O)C1(NC(=O)[C@H](Cc2ccc3ccccc3c2)NC(=O)[C@H](Cc2ccc(OCCCCC[N+](C)(C)C)cc2)NC(=O)[C@H]2NC(=O)[C@H](CCCCNC(C)=O)NC(=O)[C@H](Cc3c[nH]c4c(C)cccc34)NC(=O)[C@H]([C@@H](C)O)NC(=O)[C@H](CC(=O)N(C)C)NC(=O)[C@@H](NC(=O)CCOCCOCC[N+](C)(C)C)C(C)(C)SSC2(C)C)CCOCC1)C(=O)O` [compound 372, cPEG3aCO-Pen(3)-N(N(Me)2)-T-7MeW-K(Ac)-Pen(3)-TMAPF-2Nal-THP-K(NMeac)-N-3Pya-NMeK(PEG2PEG2K(PEG2PEG2gEC12)2)-CONH2] ({Me3N+(CH2)2O(CH2)2O(CH2)2CO}-[Pen]D(NMe2)T[Trp(7-Me)]K(Ac)[Pen]Y(X3)[2Nal][Thp][Lys(Me)](Ac)N[3Pal][NMeK]([AEEA-AEEA-X46])-NH2; disulfide 1-6) the same measures were 203 A^2 and 20 nM.
As to `CC(=O)N(C)CCCC[C@@H]1NC(=O)[C@H](Cc2c[nH]c3c(C)cccc23)NC(=O)[C@H]([C@@H](C)O)NC(=O)[C@H](CC(=O)N(C)C)NC(=O)[C@@H](NC(=O)CCOCCOCC[N+](C)(C)C)C(C)(C)SSC(C)(C)[C@@H](C(=O)N[C@@H](Cc2ccc(OCCCCC[N+](C)(C)C)cc2)C(=O)N[C@@H](Cc2ccccc2)C(=O)NC2(C(=O)N[C@@H](CCCCN(C)C(C)=O)C(=O)N[C@@H](CC(N)=O)C(=O)N[C@@H](Cc3cccnc3)C(=O)N(C)CC(=O)N(C)C)CCOCC2)NC1=O` [compound 498, cPEG3aCO-Pen(3)-N(N(Me)2)-T-7MeW-K(NMeAc)-Pen(3)-TMApF-F-THP-K(NMeAc)-N-3Pya-Sar-CON(Me)2] ({Me3N+(CH2)2O(CH2)2O(CH2)2CO}-[Pen]D(NMe2)T[Trp(7-Me)][Lys(Me)](Ac)[Pen]Y(X3)F[Thp][Lys(Me)](Ac)N[3Pal][Sar]-NMe2; disulfide 1-6), the EPSA in data set [1] is 162 A^2. Moreover, the IC50 at IL-23R was 27 nM.
For `CC(=O)NCCCC[C@@H]1NC(=O)[C@H](Cc2c[nH]c3c(C)cccc23)NC(=O)[C@H]([C@@H](C)O)NC(=O)[C@H](CC(N)=O)NC(=O)[C@@H](NC(=O)CCCc2ccc(I)cc2)C(C)(C)SSC(C)(C)[C@@H](C(=O)N[C@@H](Cc2ccc(OCCCCC[N+](C)(C)C)cc2)C(=O)N[C@@H](Cc2ccc3ccccc3c2)C(=O)NC2(C(=O)N[C@@H](CCCCNC(C)=O)C(=O)N[C@@H](CC(N)=O)C(=O)N[C@@H](Cc3cccnc3)C(=O)N(C)CC(N)=O)CCOCC2)NC1=O` [compound 547, IPBCO-Pen(3)-N-T-7MeW-K(Ac)-Pen(3)-TMAPF-2Nal-THP-K(Ac)-N-3Pya-Sar-CONH2] the same measures were 168 A^2 and 4.6 nM.
